Measurements as given in PubChem BioAssay (NCI).
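48-hour exposure; five concentrations; linearly interpolated endpoints. GI50 = concentration required for 50% inhibition of growth. TGI denotes the concentration required for complete inhibition of growth.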

Assays:
Assay in all cases: inhibition of tumour cell growth, NCI panel, 48 h
EKVX NSCLC = test system: EKVX NSCLC
DU-145 prostate = test system: DU-145 prostate
A498 renal = test system: A498 renal
SF-295 CNS = test system: SF-295 CNS
SR leukemia = test system: SR leukemia
K-562 leukemia = test system: K-562 leukemia
BT-549 breast = test system: BT-549 breast
A549 NSCLC = test system: A549 NSCLC
KM12 colon = test system: KM12 colon
CAKI-1 renal = test system: CAKI-1 renal
M14 melanoma = test system: M14 melanoma
U251 CNS = test system: U251 CNS
ACHN renal = test system: ACHN renal
MDA-MB-435 = test system: MDA-MB-435
HCT-116 colon = test system: HCT-116 colon
NCI-H522 lung = test system: NCI-H522 lung
MDA-MB-231 breast = test system: MDA-MB-231 breast
OVCAR-8 ovarian = test system: OVCAR-8 ovarian
SW-620 colon = test system: SW-620 colon
SK-MEL-28 melanoma = test system: SK-MEL-28 melanoma
RXF 393 renal = test system: RXF 393 renal
SF-539 CNS = test system: SF-539 CNS
MCF7 breast = test system: MCF7 breast
SK-MEL-2 melanoma = test system: SK-MEL-2 melanoma
LOX IMVI melanoma = test system: LOX IMVI melanoma
NCI-H23 lung = test system: NCI-H23 lung
RPMI-8226 leukemia = test system: RPMI-8226 leukemia
OVCAR-5 ovarian = test system: OVCAR-5 ovarian
HL-60(TB) leukemia = test system: HL-60(TB) leukemia
HCT-15 colon = test system: HCT-15 colon
SNB-19 CNS = test system: SNB-19 CNS
SF-268 CNS = test system: SF-268 CNS
MALME-3M melanoma = test system: MALME-3M melanoma
CCRF-CEM leukemia = test system: CCRF-CEM leukemia
NCI/ADR-RES ovarian = test system: NCI/ADR-RES ovarian
UACC-62 melanoma = test system: UACC-62 melanoma
MOLT-4 leukemia = test system: MOLT-4 leukemia
COLO 205 colon = test system: COLO 205 colon
NCI-H226 lung = test system: NCI-H226 lung
PC-3 prostate = test system: PC-3 prostate
NCI-H460 lung = test system: NCI-H460 lung
HT29 colon = test system: HT29 colon
SN12C renal = test system: SN12C renal
OVCAR-4 ovarian = test system: OVCAR-4 ovarian
IGROV1 ovarian = test system: IGROV1 ovarian
T-47D breast = test system: T-47D breast
UO-31 renal = test system: UO-31 renal
HCC-2998 colon = test system: HCC-2998 colon
HS 578T breast = test system: HS 578T breast
TK-10 renal = test system: TK-10 renal
UACC-257 melanoma = test system: UACC-257 melanoma
786-0 renal = test system: 786-0 renal
HOP-92 NSCLC = test system: HOP-92 NSCLC
SK-OV-3 ovarian = test system: SK-OV-3 ovarian
SNB-75 CNS = test system: SNB-75 CNS
HOP-62 NSCLC = test system: HOP-62 NSCLC
SK-MEL-5 melanoma = test system: SK-MEL-5 melanoma

Work on CSc1ccc(/C(=N/N=C(N)N)c2ccccc2)cc1 yielded a GI50 (EKVX NSCLC) of 779 nM, a TGI (EKVX NSCLC) of 18100 nM and a GI50 (DU-145 prostate) of 471 nM. The TGI (DU-145 prostate) was 13300 nM, the GI50 (A498 renal) was 319 nM and the TGI (A498 renal) was 1660 nM. It also gave a GI50 (SF-295 CNS) of 350 nM, a TGI (SF-295 CNS) of 11500 nM and a GI50 (SR leukemia) of 247 nM. For the same compound, the TGI (SR leukemia) was 2580 nM, the GI50 (K-562 leukemia) was 314 nM and the TGI (K-562 leukemia) was 11500 nM. For the same compound, the GI50 (BT-549 breast) was 650 nM, the TGI (BT-549 breast) was 3180 nM and the GI50 (A549 NSCLC) was 984 nM. For the same compound, the TGI (A549 NSCLC) was 14200 nM, the GI50 (KM12 colon) was 451 nM and the TGI (KM12 colon) was 14200 nM. For the same compound, the GI50 (CAKI-1 renal) was 423 nM, the TGI (CAKI-1 renal) was 10900 nM and the GI50 (M14 melanoma) was 308 nM. For the same compound, the TGI (M14 melanoma) was 1420 nM, the GI50 (U251 CNS) was 393 nM and the TGI (U251 CNS) was 11300 nM. The GI50 (ACHN renal) was 695 nM, the TGI (ACHN renal) was 12600 nM and the GI50 (MDA-MB-435) was 207 nM. The TGI (MDA-MB-435) was 478 nM, the GI50 (HCT-116 colon) was 330 nM and the TGI (HCT-116 colon) was 11400 nM. It also gave a GI50 (NCI-H522 lung) of 267 nM, a TGI (NCI-H522 lung) of 996 nM and a GI50 (MDA-MB-231 breast) of 498 nM. The TGI (MDA-MB-231 breast) was 11800 nM, the GI50 (OVCAR-8 ovarian) was 422 nM and the TGI (OVCAR-8 ovarian) was 11200 nM. The GI50 (SW-620 colon) was 435 nM, the TGI (SW-620 colon) was 15600 nM and the GI50 (SK-MEL-28 melanoma) was 1070 nM. It also gave a TGI (SK-MEL-28 melanoma) of 20000 nM, a GI50 (RXF 393 renal) of 282 nM and a TGI (RXF 393 renal) of 781 nM. The GI50 (SF-539 CNS) was 301 nM, the TGI (SF-539 CNS) was 931 nM and the GI50 (MCF7 breast) was 357 nM. The TGI (MCF7 breast) was 9460 nM, the GI50 (SK-MEL-2 melanoma) was 391 nM and the TGI (SK-MEL-2 melanoma) was 12700 nM. The GI50 (LOX IMVI melanoma) was 520 nM, the TGI (LOX IMVI melanoma) was 8780 nM and the GI50 (NCI-H23 lung) was 591 nM. It also gave a TGI (NCI-H23 lung) of 14900 nM, a GI50 (RPMI-8226 leukemia) of 391 nM and a TGI (RPMI-8226 leukemia) of 5460 nM. The GI50 (OVCAR-5 ovarian) was 571 nM, the TGI (OVCAR-5 ovarian) was 15400 nM and the GI50 (HL-60(TB) leukemia) was 274 nM. The TGI (HL-60(TB) leukemia) was 883 nM, the GI50 (HCT-15 colon) was 377 nM and the TGI (HCT-15 colon) was 12000 nM. For the same compound, the GI50 (SNB-19 CNS) was 439 nM, the TGI (SNB-19 CNS) was 14000 nM and the GI50 (SF-268 CNS) was 1290 nM. For the same compound, the TGI (SF-268 CNS) was 16100 nM, the GI50 (MALME-3M melanoma) was 719 nM and the TGI (MALME-3M melanoma) was 13500 nM. It also gave a GI50 (CCRF-CEM leukemia) of 357 nM, a TGI (CCRF-CEM leukemia) of 19200 nM and a GI50 (NCI/ADR-RES ovarian) of 1870 nM. The TGI (NCI/ADR-RES ovarian) was 11000 nM, the GI50 (UACC-62 melanoma) was 473 nM and the TGI (UACC-62 melanoma) was 15000 nM. For the same compound, the GI50 (MOLT-4 leukemia) was 462 nM, the TGI (MOLT-4 leukemia) was 13400 nM and the GI50 (COLO 205 colon) was 235 nM. The TGI (COLO 205 colon) was 549 nM, the GI50 (NCI-H226 lung) was 848 nM and the TGI (NCI-H226 lung) was 18600 nM. It also gave a GI50 (PC-3 prostate) of 383 nM, a TGI (PC-3 prostate) of 10900 nM and a GI50 (NCI-H460 lung) of 361 nM. For the same compound, the TGI (NCI-H460 lung) was 10700 nM, the GI50 (HT29 colon) was 301 nM and the TGI (HT29 colon) was 2880 nM. The GI50 (SN12C renal) was 536 nM, the TGI (SN12C renal) was 12500 nM and the GI50 (OVCAR-4 ovarian) was 5290 nM. The TGI (OVCAR-4 ovarian) was 27200 nM, the GI50 (IGROV1 ovarian) was 563 nM and the TGI (IGROV1 ovarian) was 12200 nM. It also gave a GI50 (T-47D breast) of 535 nM, a TGI (T-47D breast) of 15100 nM and a GI50 (UO-31 renal) of 747 nM. For the same compound, the TGI (UO-31 renal) was 12600 nM, the GI50 (HCC-2998 colon) was 371 nM and the TGI (HCC-2998 colon) was 1570 nM. It also gave a GI50 (HS 578T breast) of 359 nM, a TGI (HS 578T breast) of 12900 nM and a GI50 (TK-10 renal) of 4430 nM. For the same compound, the TGI (TK-10 renal) was 20400 nM, the GI50 (UACC-257 melanoma) was 1080 nM and the TGI (UACC-257 melanoma) was 11800 nM. It also gave a GI50 (786-0 renal) of 924 nM, a TGI (786-0 renal) of 15800 nM and a GI50 (HOP-92 NSCLC) of 409 nM. The TGI (HOP-92 NSCLC) was 5320 nM, the GI50 (SK-OV-3 ovarian) was 605 nM and the TGI (SK-OV-3 ovarian) was 15100 nM. For the same compound, the GI50 (SNB-75 CNS) was 310 nM, the TGI (SNB-75 CNS) was 3270 nM and the GI50 (HOP-62 NSCLC) was 481 nM. For the same compound, the TGI (HOP-62 NSCLC) was 13000 nM, the GI50 (SK-MEL-5 melanoma) was 609 nM and the TGI (SK-MEL-5 melanoma) was 2850 nM.
